Results taken from US20250042968A1, “EPHRIN LIGAND MIMETIC PEPTIDES FOR THE TREATMENT OF NEURODEGENERATIVE DISEASES” (University of Miami, priority 2022, published 2025).
“Also recorded” adds a separate entry of the source.

Columns and labels:
EphA2 [1] = target: T1, EphA2 (Mus musculus, UniProt Q03145); assay: Immunohistochemistry of TUBB3 and pEphA2 receptor in RGCs; assay type: cell-based; conditions: 500 nM, 4 days
T1 construct: endogenous in cells; host or cells: primary mouse retinal ganglion cells (p8-10 pups)

EphA2 [2] = target: T1, EphA2; assay: Western blot of EphA2 expression in isolated mouse RGCs; assay type: cell-based; conditions: 1 μM, 4 days
From the text: In order to assess the effect of xEFN peptide supplementation on Eph-receptor modulation, various in vitro assays were employed on isolated mouse RGCs. […] Similarly, xEFN_RBD1, and 3 inhibited the phosphorylation of Rac1 by pre-clustered ephirnA5 ligand stimulation. […] TUBB3 is a marker specific for neuronal microtubules and functions as a neuronal-specific marker.

T1 sequence (Q03145 26-977): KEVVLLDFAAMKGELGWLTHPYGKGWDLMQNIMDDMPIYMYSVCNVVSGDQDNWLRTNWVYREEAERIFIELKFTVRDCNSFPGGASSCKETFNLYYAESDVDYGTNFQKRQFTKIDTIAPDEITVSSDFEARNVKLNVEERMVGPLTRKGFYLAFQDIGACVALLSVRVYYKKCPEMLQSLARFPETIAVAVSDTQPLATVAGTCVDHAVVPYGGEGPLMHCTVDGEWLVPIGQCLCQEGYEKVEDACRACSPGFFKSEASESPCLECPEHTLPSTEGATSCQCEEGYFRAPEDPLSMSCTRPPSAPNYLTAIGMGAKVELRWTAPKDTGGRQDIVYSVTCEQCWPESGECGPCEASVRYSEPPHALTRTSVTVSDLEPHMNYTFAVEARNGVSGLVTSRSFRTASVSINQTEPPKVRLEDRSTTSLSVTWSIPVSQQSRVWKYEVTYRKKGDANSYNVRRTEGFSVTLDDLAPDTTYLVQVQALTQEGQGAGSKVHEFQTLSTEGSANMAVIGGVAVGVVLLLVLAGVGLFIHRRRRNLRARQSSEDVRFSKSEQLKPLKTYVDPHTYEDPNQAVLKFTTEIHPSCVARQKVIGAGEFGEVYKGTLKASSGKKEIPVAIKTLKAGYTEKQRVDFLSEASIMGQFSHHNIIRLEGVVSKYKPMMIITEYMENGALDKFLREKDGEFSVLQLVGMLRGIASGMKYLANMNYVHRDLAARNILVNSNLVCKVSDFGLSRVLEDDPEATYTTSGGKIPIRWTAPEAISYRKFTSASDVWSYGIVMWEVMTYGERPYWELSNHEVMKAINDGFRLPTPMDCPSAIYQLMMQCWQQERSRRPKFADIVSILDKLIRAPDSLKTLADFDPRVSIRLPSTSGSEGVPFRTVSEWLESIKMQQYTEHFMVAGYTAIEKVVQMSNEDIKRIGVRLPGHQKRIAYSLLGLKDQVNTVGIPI

## FTIKFQEFSPNLWGL [xEFN_RBD3]
EphA2 [1]
  dendritic density (immunohistochemistry): increase dendritic density
  phosphorylation of the EphA2 receptor (immunohistochemistry): reduced phosphorylation
EphA2 [2]
  expression of EphA2 (western blot): reduced expression; also recorded: effectively decreased expression
